“Also recorded” adds a separate entry of the source.
What was measured:
[1] = system: Akt(S473); assay: pAkt(S473) in blood of healthy volunteers treated ex vivo; type: cell-based, human; conditions: blood of two healthy volunteers, 1 μM, 30 minutes ex vivo; signal very low, disregarded as false
Method: (§1) Staining of Blood for Flow Cytometry, General Protocol: • Human blood from healthy donors was collected in the presence of sodium citrate and mixed with 20 volumes of pre-warmed BD phosflow lyse/fix buffer (diluted to 1× in destilled water), followed by incubation in 37° C. water bath for 10 minutes. Cells were spun at 500 g for 8 minutes and washed once with PBS. • Cells were permebilized by adding 70% MeOH followed by 30 min incubation on ice. Unless processed immediately, samples were at this point stored in MeOH at −20° C. for up to 4 weeks. • Staining of permeabilized cells: • Cells were spun at 600 g, washed twice and resuspended in IB. Cells were aliquoted into volums corresponding to 100 ul collected blood (before dilution), and stained as described above (section two in “Staining of cells for flow cytometry, general protocol”). • All washing and incubation steps were done on a spinning wheel or gentle shaker.
(§2) Blood samples from BGB324-treated individuals were not available, so BGB324-treatment was simulated by incubating fresh unfixed blood samples with 1 μM BGB324 for 30 minutes before fixation. Thereafter, samples were fixed, permebealized, and stained for flow with pAxl and pAkt antibodies to examine whether we could see a response to BGB324-treatment in these biomarkers (see FIG. 7). Phosphatase-treated cells were included as a negative staining control.

[2] = system: PHGDH; assay: PHGDH by western blot in MOLM13 cells treated in vitro; type: cell-based, human
Method: (§3) Western Blot, General Protocol: • For western blot analysis, cells were lysed on ice using NP-40 lysis buffer with protease- and phosphatase inhibitors. Total protein concentration in lysates was measured using a BCA protein assay kit following the manufacturers instructions. 10% NuPAGE® Bis-Tris precast gels were loaded with 30-50 μg of protein in each well diluted in sample buffer and antioxidant. A 1:1 mix of MagicMark™ XP Western Protein Standard (Invitrogen) and SeeBlue® Plus 2 Pre-Stained Standard was used as protein standard. Gels were run at 50V for 20 min, then at 100V for 1 h 30 min. Blotting was done on ice for 1 h 30 min at 100V onto PVDF (pre-activated with MeOH) or nitrocellulose membranes. Membranes were washed in TBS-0.1% Tween-20 (TBS-T), and blocked in TBS-T 5% BSA for at least 1 h at RT. Primary ABs were added at 1:1000 in TBS-T 5% BSA (rabbit-anti-actin AB was added at 1:2000) in TBS-T 5% BSA, and membranes were incubated over night at 4° C. Membranes were then washed 3× in TBS-T, and incubated in HRP-conjugated secondary ABs at 1:5000 dilution in TBS-T 5% milk for 45 min at RT. Membranes were developed for 1 min using ECL-reagents and imaged with chemiluminescence using a Molecular Imager ChemiDoc™ XRS (BioRad). • All incubation- and washing steps were done on a roller.

[3] = system: MOLM13 systemic xenograft; assay: Leukemic (CD33/CD45-positive) cells in MOLM13 systemic xenograft model; type: in vivo, mice; conditions: 50 mg/kg for 4 days
Method: Material from an in vivo MOLM13 systemic model was also evaluated by flow cytometry. Expression of the previously evaluated biomarkers was examined in cells isolated from bone marrows and spleens of animals with systemic AML disease (MOLM13, inoculated for 7 days prior to treatment) treated with BGB324 at 50 mg/kg for 4 days. The spleens analysed were from the same study that was analysed by microarray, as mentioned above. The bone marrows were from an identical study that was done at a later time point to get more material for flow analyses.
Cells harvested from spleens, blood and bone marrows of the animals were stained with anti CD33 and CD45 antibodies, to determine if systemic disease was established. CD33/CD45-positive cells were found in spleens (around 10-15%), bone marrows (35-40%) and in the blood (2-6%) of the animals, confirming that the disease was established.

[4] = system: Axl(Y779); assay: pAxl(Y779) in blood of healthy volunteers treated ex vivo; type: cell-based, human; conditions: blood of two healthy volunteers, 1 μM, 30 minutes ex vivo
Method: as §1
as §2, with “control. […]” for “control.”

[5] = system: PHGDH; assay: PHGDH by western blot in Mv4-11 subcutaneous xenograft tumours; type: in vivo, mice; conditions: for PHGDH in tumour lysates (western blot): Mv4-11 sub-q
Method: as §3
To validate the reduction of PHGDH in in vivo samples found by microarray, the PHGDH expression in tumour material from in vivo samples was investigated by western blot. […] Therefore, it was investigated at what time point PHGDH is reduced after treatment with a single high dose of BGB324 100 mg/kg.
Tumours where the mice had been treated with a single lower dose of BGB324, 50 mg/kg, were also examined (tumour material was harvested at different time points, from 4-72 hours).

[6] = system: Kasumi cells; assay: IC50 of BGB324 by resazurin assay, Kasumi; type: cell-based; conditions: Homo sapiens, Kasumi (non-responder)
From the text: The diversity of AML cells and their responses was investigated using a panel of AML cell lines and assessing their responses after BGB324-treatment.

[7] = system: PHGDH; assay: Microarray analysis of xenograft material, PHGDH transcript; type: in vivo, mice
From the text: PHGDH was included in the biomarker panel following microarray analysis of Mv4-11 and MOLM13 xenograft material after BGB324-treatment.

SMILES: Nc1nc(Nc2ccc3c(c2)CC[C@@H](N2CCCC2)CC3)nn1-c1cc2c(nn1)-c1ccccc1CCC2 [BGB324, 1-(6,7-dihydro-5H-benzo[6,7]cyclohepta[1,2-c]pyridazin-3-yl)-N3-((7-(S)-pyrrolidin-1-yl)-6,7,8,9-tetrahydro-5H-benzo[7]annulene-2-yl)-1H-1,2,4-triazole-3,5-diamine]
- pAkt [1]: very slight reduction in pAkt
- PHGDH by western blot ([2]; 2 uM, time-course of 3-7 hours): did not see reduction of PHGDH
- PHGDH by western blot ([2]; 0.3 and 0.6 uM, three days): did not see reduction of PHGDH
- percentage of leukemic cells vs. vehicle-treated mice ([3]; blood): significantly higher percentage of leukemic cells
- percentage of leukemic cells vs. vehicle-treated mice ([3]; bone marrows): no significant differences
- percentage of leukemic cells vs. vehicle-treated mice ([3]; spleens): no significant differences
- reduction of pAxl(Y779) ([4]; gated Axl-positive cells): ~20%
- reduction of pAxl ([4]; whole live cell population): around 20%
- PHGDH in tumours (western blot) ([5]; Mv4-11, single dose 50 mg/kg, harvested 4-72 hours): stable reduction of PHGDH was observed from 16 hours and onwards
- PHGDH in tumours (western blot) ([5]; Mv4-11, single dose 100 mg/kg, 6 hours after treatment): not 6 hours after treatment
- PHGDH in tumours (western blot) ([5]; Mv4-11, single dose 100 mg/kg, 8 hours after treatment): reduction of PHGDH observed in three parallel tumours
- PHGDH in tumour lysates (western blot) ([5]; 25 mg/kg BID, 50 mg/kg BID or 50 mg/kg QD, 15 days): reduction of PHGDH was observed in most of the tumours
- PHGDH in tumour lysates (western blot) ([5]; 100 mg/kg single dose, tumours harvested 6 h after dosing): only in one of two tumours
- IC50 [6]: 1200 nM
- PHGDH transcript (microarray) ([7]; MOLM13 systemic xenograft model, spleen and bone marrow): significantly downregulated; also recorded: significantly reduced
- PHGDH transcript (microarray) ([7]; Mv4-11 subcutaneous xenograft, 14 days of treatment): one of the most significantly downregulated transcripts; also recorded: significantly downregulated
- PHGDH transcript alteration after treatment (microarray) ([7]; both Mv4-11 subcutaneous and MOLM13 systemic xenograft models): more than 1.5 fold

Source: patent US11035008B2, “Biomarkers for cancer” (BERGENBIO ASA, priority 2015, dated 2021)
